{"source": "patent US20250099360A1", "about": "(Goodier Cosmetics, LLC, priority 2023, published 2025)", "origin": "cited, not measured here", "system": "UV-B-induced lipid peroxidation", "settings": "UV-B radiation"}
{"smiles": "CCCCCCCCCCCCCCCC(=O)OC[C@H](O)[C@H]1OC(=O)C(O)=C1O", "note": "[ascorbyl palmitate]", "values": [{"measurement": "effect on UV-B-induced lipid peroxidation", "result": "promotes UV-B-induced lipid peroxidation"}]}
